The values below come from US4513007A, “Method for treating heart disease” (priority 1983, dated 1985).

One assay deals with cardiac lymphatics. The assay can be described thus: post-mortem cardiac lymphangiography in normal dog hearts (first study). Format: in vivo, mongrel dogs. Particulars: normal myocardium, 6 h after i.v., Hyaluronidase 500 I.U./kg, calcium dobesilate 50-100 mg/kg. As to the method:
I. In a first study the effect of calcium dobesilate was compared to Hyaluronidase on the visualization of cardiac lymphatics in normal dog hearts (not infarcted). 18 healthy mongrel dogs of either gender were divided into 3 groups each of 6 animals. […] The dogs in the second group received an intravenous injection of Hyaluronidase (500 I.U./kg) and those of the third group received an i.v. injection of calcium dobesilate (50-100 mg/kg). Post-mortem cardiac lymphangiography was performed after killing the animals and extracting the hearts 6 hours after the administration of either product. The results of the 2 groups were compared to that of the controls. The technique of cardiac lymphangiography used was that described by Szlavy L., Adams D., Hollenberg N. K. and Abrams H., published in the American Heart Journal, Vol. 100, Nr. 3, pp 323-331, Sept. 1980 (8). The technique consisted in injecting a contrast agent (30 g barium sulphate+2-5 ml of Iodamid 420) into the superficial lymphatic vessels of the heart using a Becton-Dickinson lymphangiography set. The contrast agent was injected under gentle manual pressure until the lymphatic vessels in the left ventricle were filled (multiple injections starting from the apex to the base of the heart). The heart was then X-rayed with 5-fold magnification using a 0,1 mm focal spot X-raytube and with exposure factors of 50 KV, 0,01 second and 30 mA. With this technique it was possible to visualize the 40-80 microns lymphatic vessels. A grid was applied on the lymphangiograms which consisted of lines drawn at right angles, 1 cm apart. Each 5×5 cm^2 served as a single unit as it corresponded to 1 cm^2 of the left ventricular myocardium (5-fold magnification was used for filming). A point was counted whenever a crossing coincided with a visualized lymph vessel in the lymphangiogram. In this way a quantitative index was obtained based on the number of lymph vessels/cm^2 or to the percent of the left ventricular surface area.

The subject of assay [1] is dogs with coronary occlusion. The note with it: cited from earlier work.
Assay [2] has as its system patients with acute anterior myocardial infarction. Particulars: intravenous; cited from earlier work.

For the substance Hyaluronidase, the “No of lymphatics per cm^2” value with cardiac lymphatics (controls 1.64 ± 0.11, P <0.001 in relation to control) came out at 3.45 ± 0.18 per cm^2. Moreover, in the assay on cardiac lymphatics (controls 6.6%, P <0.001), the “Equivalence to ventricular surface” value is on record as 13.8%. Further, in assay [1], the ST segment elevation result is given as “reduction”, the “infarct size (histological planimetric measurements)” value is listed as “decrease”, the “myocardial CK (creatinine-Kinase)” value was “diminution” and the “number of lymphatic vessels in the area of infarction” value is “increase”. In addition, the “EKG signs of necrosis” value in assay [2] is recorded as “attenuate”.
